Experimental data from US6761913B2, “Extracts of celery seed for the prevention and treatment of pain, inflammation and gastrointestinal irritation” (priority 1998, dated 2004).

Legend:
[1] = test system: adjuvant arthritis (onset); test: Arthritis-ablating activity: test material incorporated into the arthritigenic adjuvant; type: in vivo, female Dark Agouti rats; details: for activity in preventing (ablating) adjuvant arthritis: summary of Table 3; for effect on arthritis score (AS): most tested at 10 mg/rat, no effect = AS 2.5+
[2] = test system: NSAID-induced gastric lesions; test: Gastric injury caused by aspirin/NSAIDs in pre-sensitised (pre-inflamed) rats, gastroprotection assay; details: for incidence of gastric lesions and bleeding: pre-inflamed rats, aspirin 100 mg/kg, Naproxen 10 mg/kg, Ketoprofen 5 mg/kg orally, Piroxicam 5 mg/kg intraperitoneally
Procedure: This model comprises oral or parenteral non-steroidal anti-inflammatory drugs (NSAIDs) given to rats whose gastrointestinal mucosa is pre-sensitized by prior development of arthritis or oleyl alcohol-induced inflammation. The animals are pre-sensitized by injection of an arthritogenic adjuvant or 0.1 ml oleyl alcohol 5 days prior to the assay.
The disease stress was induced five days previously either by injecting an arthritigenic adjuvant or 0.1 ml oleyl alcohol into the tail base to incite severe local inflammation. […] A-CSE or S-CSE was given orally within 20 seconds of the aspirin/NSAID. The number (N) and severity (S, graded on a score of 0 to 4 based on increasing area of injury) of gastric lesions as well as the percentage incidence of animals (%I) with gastric damage was recorded. The lesion index (LI) was then calculated as: LI=N/n+S/n+%I/10, where n=number of animals per group.
Gastroprotective activity was assessed in fasted (overnight) arthritic rats challenged with 50 mg/kg Ibuprofen given orally to induce gastric bleeding. Test preparations, dispersed with Tween-20, were given orally 20 seconds prior to Ibuprofen.
The procedure is further elaborated in K. Rainsford and M. Whitehouse [J. Pharm.

[3] = test system: carrageenan-induced paw edema; test: Carrageenan-induced paw edema (acute inflammation); type: in vivo, rat; details: for ED50: Rattus norvegicus, oral, 45 minutes before carrageenan, read-out: effective dose for 50 percent reduction of the paw edema (ED50)
Procedure: To evaluate early i.e. rapid-acting therapeutic efficacy, carrageenan (1 mg in 0.1 ml saline) was injected into rear paws of rats to elicit a rapid onset (acute) inflammation. The ensuing paw edema was measured by the increase in paw thickness with a micrometer over the subsequent three hour period at hourly intervals.
The test drug formulations were given orally 45 minutes before injecting the carrageenan.

[4] = test system: adjuvant-induced arthritis; test: Experimental (adjuvant-induced) polyarthritis in rats, treatment of established arthritis; type: in vivo, rat; details: for Mean % Inhibition of Arthritis Score / Mean % Inhibition of Fore Paw Swelling / Mean % Inhibition of Rear Paw Swelling: per os, mg/kg per day: A-CSE 350, S-CSE 50, Aspirin 150 × 2, Ibuprofen 50, Naproxen 25; for Mean % Inhibition of Arthritis Score: days 10-13, day 14, independent observer; for Mean % Inhibition of Fore Paw Swelling / Mean % Inhibition of Rear Paw Swelling: days 10-13, measured day 14; for anti-inflammatory activity: tested at 50 mg/kg
[5] = test system: production of prostaglandin E2; test: Production of prostaglandin E2 by pig gastric (fundic) mucosal explants; type: cell-based; details: 10 μmol/L, pure samples
[6] = test system: adjuvant arthritis (onset); details: Haynes D R et al. Inflamm Res 45:159-165, 1996; cited from earlier work

With `CC(=O)Oc1ccccc1C(=O)O` [Aspirin] the “activity in preventing (ablating) adjuvant arthritis” value (shortened to “activity in preventing”) [1] was “not shared”, the “incidence of gastric lesions and bleeding” value [2] was 90% and the ED50 [3] was 200 mg/kg. For the same molecule, the “Mean % Inhibition of Arthritis Score” value [4] was 25%, the “Mean % Inhibition of Fore Paw Swelling” value [4] was 24% and the “Mean % Inhibition of Rear Paw Swelling” value [4] was 40%.
In the case of `COc1c2ccoc2cc2oc(=O)ccc12` [Bergapten], the “activity in preventing” value [1] is reported as “without such activity”.
With `CCCCC1OC(=O)c2ccccc21` (stereo not shown) [Butylphthalide] the “activity in preventing” value [1] was “without such activity”, the gastroprotective activity ([2]; tested at 50 mg/kg) was “no anti-inflammatory or gastroprotective activity” and the anti-inflammatory activity [4] was “no anti-inflammatory or gastroprotective activity”.
In the case of `CC(C)Cc1ccc(C(C)C(=O)O)cc1` (stereo not shown) [Ibuprofen], the “activity in preventing” value [1] is reported as “not shared”, the “mean number of haemorrhagic lesions (+/−SD)” value ([2]; 50 mg/kg, free acid or Nurofen, suspension 5 ml/kg, pre-inflamed female Wistar rats, n=90) is reported as 42+/−06 and the “animals with no macroscopically detectable gastric bleeding” value ([2]; Ibuprofen 50 mg/kg with no celery (n=90 rats) or with celery extracts (n=67 rats)) is reported as 7%. The “inhibition of paw swelling” value ([3]; Ibuprofen 15 mg/kg, Ketoprofen 1 mg/kg, alone, n=6, not statistically significant) was 19%, the ED50 [3] was 45 mg/kg and the “suppression of arthritic paw swelling / inhibition of polyarthritis” value ([4]; four successive oral doses, Ibuprofen 30 mg/kg, A-CSE 50 mg/kg, S-CSE 5 mg/kg) was 38%. For the same molecule, the “Mean % Inhibition of Arthritis Score” value [4] was 36%, the “Mean % Inhibition of Fore Paw Swelling” value [4] was 39% and the “Mean % Inhibition of Rear Paw Swelling” value [4] was 38%.
In the case of `C=C(C)[C@H]1CC=C(C)CC1` [Limonene], the “effect on production of prostaglandin E2” value [5] is reported as “not”, the “activity in preventing” value [1] is reported as “without such activity” and the anti-inflammatory activity [4] is reported as “no anti-inflammatory or gastroprotective activity”.
With `COc1ccc2cc([C@H](C)C(=O)O)ccc2c1` [Naproxen] the “activity in preventing” value [1] was “not shared”, the “Mean % Inhibition of Arthritis Score” value [4] was 64% and the “Mean % Inhibition of Fore Paw Swelling” value [4] was 36%. The “Mean % Inhibition of Rear Paw Swelling” value [4] was 57%.
In the case of `CCCCCCCCCCC/C=C\CCCCC(=O)OC` [Petroselenic acid methyl ester], the “activity in preventing” value [1] is reported as “without such activity”.
In the case of `CN1C(C(=O)Nc2ccccn2)=C(O)c2ccccc2S1(=O)=O` [Piroxicam], the “incidence of gastric lesions and bleeding” value [2] is reported as 90%.
In the case of `Cn1cnc([N+](=O)[O-])c1Sc1ncnc2nc[nH]c12` [azathioprine], the “effect on arthritis score (AS)” value [1] is reported as “no effect”.
With `O=C(O)CCCc1ccc(N(CCCl)CCCl)cc1` [chlorambucil] the “effect on arthritis score (AS)” value [1] was “no effect”.
With `Nc1ccc(S(=O)(=O)c2ccc(N)cc2)cc1` [dapsone] the “effect on arthritis score (AS)” value [1] was “no effect”.
For `O=C(O)c1ccccc1Nc1cc(Cl)ccc1C(=O)O` [lobenzarit], the “ablating the onset of arthritis” value [6] is listed as “capable of ablating the onset of arthritis”.
For `O=c1c(O)c(-c2cc(O)c(O)c(O)c2)oc2cc(O)cc(O)c12` [myricetin], the “effect on production of prostaglandin E2” value [5] was “inhibited”.
With `O=c1c(O)c(-c2ccc(O)c(O)c2)oc2cc(O)cc(O)c12` [quercetin] the “effect on production of prostaglandin E2” value [5] was “inhibited”.
